Experimental data reported in patent US7858621B2 (Amorepacific Corporation, priority 2006, dated 2010).

target: T1, vanilloid receptor (Rattus norvegicus, UniProt O35433); assay: 45Ca influx test in cultured neonatal rat DRG neurons, inhibition of capsaicin response; type: cell-based; conditions: neonatal rat DRG neurons, capsaicin 0.5 μM, 45Ca influx; read-out: Antagonist Calcium Uptake Test (IC50)
T1 construct: DRG nerve cells from the primary culture of 2 days were equilibrated; endogenous in cells; host or cells: primary culture of dorsal root ganglion neurons from neonatal SD rats
T1 sequence (O35433 whole entry): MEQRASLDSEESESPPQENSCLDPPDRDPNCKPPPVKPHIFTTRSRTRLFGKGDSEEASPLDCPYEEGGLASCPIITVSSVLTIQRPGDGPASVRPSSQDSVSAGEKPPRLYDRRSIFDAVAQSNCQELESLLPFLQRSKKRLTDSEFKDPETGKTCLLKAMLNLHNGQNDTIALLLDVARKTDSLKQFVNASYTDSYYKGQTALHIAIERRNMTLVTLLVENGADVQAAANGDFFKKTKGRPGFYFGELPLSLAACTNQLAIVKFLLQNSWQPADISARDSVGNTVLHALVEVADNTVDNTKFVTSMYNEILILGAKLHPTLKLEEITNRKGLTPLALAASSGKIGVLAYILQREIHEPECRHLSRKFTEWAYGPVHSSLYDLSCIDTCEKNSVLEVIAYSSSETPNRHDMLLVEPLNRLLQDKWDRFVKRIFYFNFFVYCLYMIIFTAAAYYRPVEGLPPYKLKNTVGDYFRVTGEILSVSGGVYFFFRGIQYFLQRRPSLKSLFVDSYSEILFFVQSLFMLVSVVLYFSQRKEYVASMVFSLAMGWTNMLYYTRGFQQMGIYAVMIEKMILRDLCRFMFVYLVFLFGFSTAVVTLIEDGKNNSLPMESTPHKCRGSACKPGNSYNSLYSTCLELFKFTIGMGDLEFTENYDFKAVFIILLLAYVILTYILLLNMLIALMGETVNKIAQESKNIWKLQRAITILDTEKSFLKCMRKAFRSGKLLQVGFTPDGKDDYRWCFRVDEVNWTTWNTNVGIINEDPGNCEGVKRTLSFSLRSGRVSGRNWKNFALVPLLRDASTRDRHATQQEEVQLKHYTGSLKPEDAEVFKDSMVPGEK
Description: 1) Separation of Spinal Dorsal Root Ganglia (DRG) in Newborn Rats and Primary Culture Thereof
Neonatal (2-3 day old or younger than 2-3 day old) SD rats were put in ice for 5 minutes to anesthetize and disinfected with 70% ethanol. […] The DRG were incubated sequentially at 37° C. for 30 mins in 200 U/ml collagenase and 2.5 mg/ml trypsin, separately. The ganglia were washed twice with DME/F12 medium supplemented with 10% horse serum, triturated through a fire-polished Pasteur pipette, filtered through Nitex 80 membrane to obtain single cell suspension and the suspension was washed once more. This was subjected to centrifugation, then resuspended in cell culture medium at certain level of cell density. As the cell culture medium, DME/F12 medium supplemented with 10% horse serum was diluted with identical medium conditioned by C6 glioma cells 2 days on a confluent monolayer (1:1), and NGF (Nerve Growth Factor) was added to adjust 200 ng/ml as final concentration. After the cells were grown 2 days in medium where cytosine arabinoside (Ara-C, 100 μM) was added to kill dividing nonneuronal cells, medium was changed to one without Ara-C. The resuspended cells were plated at a density of 1500-2000 neurons/well onto Terasaki plates previously coated with 10 μg/ml poly-D-ornithine.
2) ^45Ca Influx Experiments
DRG nerve cells from the primary culture of 2 days were equilibrated by washing 4 times with HEPES (10 mM, pH 7.4)-buffered Ca^2+, Mg^2+-free HBSS (H-HBSS). The solution in each well was removed from the individual well. Medium containing the test compound plus capsaicin (final concentration 0.5 μM) and ^45Ca (final concentration 10 μCi/ml) in H-HBSS was added to each well and incubated at room temperature for 10 mins. Terasaki plates were washed five times with H-HBSS and dried at room temperature. To each well, 0.3% SDS (10 μl) was added to elute ^45Ca. After the addition of scintillation cocktail of into each well, the amount of ^45Ca influx into neuron was measured by counting radioactivity.

SMILES | IC50 [nM]
CC(C)(C)c1ccc(/C=C/C(=O)NCc2cc(F)c(NS(C)(=O)=O)c(F)c2)cn1 [Example 39, 3-(6-tert-Butyl-pyridin-3-yl)-N-(3,5-difluoro-4-methanesulfonylamino-benzyl)-acrylamide] | 1600
C#Cc1cc(CNC(=O)/C=C/c2ccc(C(F)(F)F)nc2Cl)cc(F)c1NS(C)(=O)=O [Example 40, 3-(2-Chloro-6-trifluoromethyl-pyridin-3-yl)-N-(3-ethynyl-5-fluoro-4-methanesulfonylamino-benzyl)-acrylamide] | 980
C#Cc1cc(CNC(=O)/C=C/c2cnc(OC)cc2C(F)(F)F)cc(F)c1NS(C)(=O)=O [Example 41, N-(3-Ethynyl-5-fluoro-4-methanesulfonylaminobenzyl)-3-(6-methoxy-4-trifluoromethylpyridin-3-yl)acrylamide] | 1600
COc1cc(C(F)(F)F)c(/C=C/C(=O)NCc2ccc(NS(C)(=O)=O)c(F)c2)cn1 [Example 43, N-(3-Fluoro-4-methanesulfonylaminobenzyl)-3-(6-methoxy-4-trifluoromethylpyridin-3-yl)acrylamide] | 9200
CS(=O)(=O)Nc1ccc(CNC(=O)/C=C/c2ccc(C(F)(F)F)nc2Cl)cc1F [Example 44, 3-(2-Chloro-6-trifluoromethyl-pyridin-3-yl)-N-(3-fluoro-4-methanesulfonylamino-benzyl)-acrylamide] | > 10000
CCN(CC)c1nc(C(F)(F)F)ccc1/C=C/C(=O)NCc1ccc(NS(C)(=O)=O)c(F)c1 [Example 47, 3-(2-Diethylamino-6-trifluoromethyl-pyridin-3-yl)-N-(3-fluoro-4-methanesulfonylamino-benzyl)-acrylamide] | 960
C#Cc1cc(CNC(=O)/C=C/c2cccnc2N2CCOCC2)cc(F)c1NS(C)(=O)=O [Example 49, N-(3-Ethynyl-5-fluoro-4-methanesulfonylamino-benzyl)-3-(2-morpholin-4-yl-pyridin-3-yl)-acrylamide] | 5400
CS(=O)(=O)Nc1ccc(CNC(=O)/C=C/c2cccnc2N2CCOCC2)cc1F [Example 50, N-(5-fluoro-4-methanesulfonylamino-benzyl)-3-(2-morpholin-4-yl-pyridin-3-yl)-acrylamide] | > 10000
C#Cc1cc(CNC(=O)/C=C/c2ccc(C(C)(C)C)nc2Cl)cc(F)c1NS(C)(=O)=O [Example 51, 3-(6-tert-Butyl-2-chloro-pyridin-3-yl)-N-(3-ethynyl-5-fluoro-4-methanesulfonylamino-benzyl)-acrylamide] | 140
CS(=O)(=O)Nc1ccc(CNC(=O)/C=C/c2cnc(Cl)cc2C(F)(F)F)cc1F [Example 53, 3-(6-Chloro-4-trifluoromethyl-pyridin-3-yl)-N-(3-fluoro-4-methanesulfonylamino-benzyl)-acrylamide] | > 10000
CS(=O)(=O)Nc1ccc(CNC(=O)/C=C/c2ccc(C(F)(F)F)nc2N2CCCC2)cc1F [Example 55, N-(3-Fluoro-4-methanesulfonylamino-benzyl)-3-(2-pyrrolidin-1-yl-6-trifluoromethyl-pyridin-3-yl)-acrylamide] | 1400
CS(=O)(=O)Nc1ccc(CNC(=O)/C=C/c2ccc(C(F)(F)F)nc2N2CCC(O)C2)cc1F (centres unmarked) [Example 56, N-(3-Fluoro-4-methanesulfonylamino-benzyl)-3-[2-(3-hydroxy-pyrrolidin-1-yl)-6-trifluoromethyl-pyridin-3-yl]-acrylamide] | > 10000
CS(=O)(=O)Nc1ccc(CNC(=O)/C=C/c2ccc(C(F)(F)F)nc2)cc1F [Example 58, N-(3-Fluoro-4-methanesulfonylamino-benzyl)-3-(6-trifluoromethyl-pyridin-3-yl)-acrylamide] | > 10000
C#Cc1cc(CNC(=O)/C=C/c2ccc(C(C)(C)C)nc2N2CCOCC2)cc(F)c1NS(C)(=O)=O [Example 59, 3-(6-tert-Butyl-2-morpholin-4-yl-pyridin-3-yl)-N-(3-ethynyl-5-fluoro-4-methanesulfonylamino-benzyl)-acrylamide] | 210
COc1nc(C(F)(F)F)ccc1/C=C/C(=O)NCc1ccc(NS(C)(=O)=O)c(F)c1 [Example 60, N-(3-Fluoro-4-methanesulfonylamino-benzyl)-3-(2-methoxy-6-trifluoromethyl-pyridin-3-yl)-acrylamide] | 2100
CS(=O)(=O)Nc1ccc(CNC(=O)/C=C/c2ccc(C(F)(F)F)nc2NCCO)cc1F [Example 61, N-(3-Fluoro-4-methanesulfonylamino-benzyl)-3-[2-(2-hydroxy-ethylamino)-6-trifluoromethyl-pyridin-3-yl]-acrylamide] | 4900
C#Cc1cc(CNC(=O)/C=C/c2ccc(C(F)(F)F)nc2N2CCCC2)cc(F)c1NS(C)(=O)=O [Example 62, N-(3-Ethynyl-5-fluoro-4-methanesulfonylamino-benzyl)-3-(2-pyrrolidin-1-yl-6-trifluoromethyl-pyridin-3-yl)-acrylamide] | 260
CCCCOc1nc(C(F)(F)F)ccc1/C=C/C(=O)NCc1ccc(NS(C)(=O)=O)c(F)c1 [Example 63, 3-(2-Butoxy-6-trifluoromethyl-pyridin-3-yl)-N-(3-fluoro-4-methanesulfonylamino-benzyl)-acrylamide] | 560
C#Cc1cc(CNC(=O)/C=C/c2ccc(C(F)(F)F)nc2N2CCN(C)CC2)cc(F)c1NS(C)(=O)=O [Example 64, N-(3-Ethynyl-5-fluoro-4-methanesulfonylamino-benzyl)-3-[2-(4-methyl-piperazin-1-yl)-6-trifluoromethyl-pyridin-3-yl]-acrylamide] | 6500
C#Cc1cc(CNC(=O)/C=C/c2ccc(C(F)(F)F)nc2OCCCC)cc(F)c1NS(C)(=O)=O [Example 66, 3-(2-Butoxy-6-trifluoromethyl-pyridin-3-yl)-N-(3-ethynyl-5-fluoro-4-methanesulfonylamino-benzyl)-acrylamide] | 250
C#Cc1cc(CNC(=O)/C=C/c2ccc(C(F)(F)F)nc2C)cc(F)c1NS(C)(=O)=O [Example 68, N-(3-Ethynyl-5-fluoro-4-methanesulfonylaminobenzyl)-3-(2-methyl-6-trifluoromethylpyridin-3-yl)acrylamide] | 1300
Cc1nc(C(F)(F)F)ccc1/C=C/C(=O)NCc1ccc(NS(C)(=O)=O)c(F)c1 [Example 69, N-(3-Fluoro-4-methanesulfonylaminobenzyl)-3-(2-methyl-6-trifluoromethylpyridin-3-yl)acrylamide] | 3200
C#Cc1cc(CNC(=O)/C=C/c2ccc(C(F)(F)F)nc2OC(C)C)cc(F)c1NS(C)(=O)=O [Example 70, 3-(2-Isopropoxy-6-trifluoromethyl-pyridin-3-yl)-N-(3-ethynyl-5-fluoro-4-methanesulfonylamino-benzyl)-acrylamide] | 130
C#Cc1cc(CNC(=O)/C=C/c2ccc(C(F)(F)F)nc2N2CCC[C@H]2C(=O)OCc2ccccc2)cc(F)c1NS(C)(=O)=O [Example 71, N-(3-Ethynyl-5-fluoro-4-methanesulfonylamino-benzyl)-3-[2-(2-benzyloxycarbonyl-pyrrolidin-1-yl)-6-trifluoromethyl-pyridin-3-yl]-acrylamide] | > 10000
C#Cc1cc(CNC(=O)/C=C/c2ccc(C(F)(F)F)nc2NCCCC)cc(F)c1NS(C)(=O)=O [Example 72, 3-(2-Butylamino-6-trifluoromethyl-pyridin-3-yl)-N-(3-ethynyl-5-fluoro-4-methanesulfonylamino-benzyl)-acrylamide] | 160
C#Cc1cc(CNC(=O)/C=C/c2ccc(C(F)(F)F)nc2NC2CCCC2)cc(F)c1NS(C)(=O)=O [Example 73, 3-(2-Cyclopentylamino-6-trifluoromethyl-pyridin-3-yl)-N-(3-ethynyl-5-fluoro-4-methanesulfonylamino-benzyl)-acrylamide] | 150
C#Cc1cc(CNC(=O)/C=C/c2ccc(C(F)(F)F)nc2OCC(C)C)cc(F)c1NS(C)(=O)=O [Example 74, N-(3-Ethynyl-5-fluoro-4-methanesulfonylamino-benzyl)-3-(2-isobutoxy-6-trifluoromethyl-pyridin-3-yl)-acrylamide] | 510
C#Cc1cc(CNC(=O)/C=C/c2cc(Cl)c(C(F)(F)F)nc2CCCC)cc(F)c1NS(C)(=O)=O [Example 76, 3-(2-Butyl-5-chloro-6-trifluoromethyl-pyridin-3-yl)-N-(3-ethynyl-5-fluoro-4-methanesulfonylamino-benzyl)-acrylamide] | 200
C#Cc1cc(CNC(=O)/C=C/c2ccc(C(F)(F)F)nc2OC(C)CC)cc(F)c1NS(C)(=O)=O (centres unmarked) [Example 77, 3-(2-sec-Butoxy-6-trifluoromethyl-pyridin-3-yl)-N-(3-ethynyl-5-fluoro-4-methanesulfonylamino-benzyl)-acrylamide] | 340
